Experimental data from patent US4446133A, “1-Phenyl-4-carbamoyl piperazine compounds, process for preparation thereof and utilizations thereof” (Misuitoatsu Chemicals, Inc., priority 1980, dated 1984).

What follows are molecules tested on adjuvant arthritis (assay: Test 2: Adjuvant Arthritis Test). Settings: 5 mg/kg subcutaneous, 9 times; left hind leg; 15 days; control 84.4 ± 9.0; * P<0.05, ** P<0.01.
Format: in vivo, SD male rats
CCN(CC)C(=O)N1CCN(c2ccc(C(C)=O)cc2)CC1 [drawing 22] was tested, and the “Swelling Ratio (average value ± standard variation), 15 days” value was 61.4 ± 10.4%.

Same assay, conditions: 5 mg/kg subcutaneous, 9 times; left hind leg; 18 days; control 103.2 ± 9.7; * P<0.05, ** P<0.01
For CCN(CC)C(=O)N1CCN(c2ccc(C(C)=O)cc2)CC1 [drawing 22], the “Swelling Ratio (average value ± standard variation), 18 days” value was 62.2 ± 8.8%.

Same assay, conditions: 5 mg/kg subcutaneous, 9 times; left hind leg; 21 days; control 107.5 ± 13.3; * P<0.05, ** P<0.01
In the case of CCN(CC)C(=O)N1CCN(c2ccc(C(C)=O)cc2)CC1 [drawing 22], the “Swelling Ratio (average value ± standard variation), 21 days” value is reported as 68.4 ± 12.0%.

What follows are molecules tested on Sarcoma 180 (assay: Test 5: Test of Antitumor Effect to Sarcoma 180 by Subcutaneous Administration). Settings: 20 mg/kg subcutaneous; 2 weeks; control 10.8.
Format: in vivo, ICR female mice
Experimental: To the control group, a physiological saline solution was similarly administered. […] The diameter D (mm) of the tumor was measured, and the average value and the number N of the living mice were determined to obtain results shown in Table 4.
CCN(CC)C(=O)N1CCN(c2ccc(Cl)cc2)CC1 [drawing 36] was tested, and the “D: average diameter of tumor, 2 weeks” value was 2.3 mm. With CCN(CC)C(=O)N1CCN(c2ccc(C(=O)O)cc2)CC1 [drawing 39] the “D: average diameter of tumor, 2 weeks” value was 2.1 mm. CCN(CC)C(=O)N1CCN(c2ccccc2)CC1 [drawing 35] was tested, and the “D: average diameter of tumor, 2 weeks” value was 2.9 mm. In the case of CCOC(=O)c1ccc(N2CCN(C(=O)N(CC)CC)CC2)cc1 [drawing 38], the “D: average diameter of tumor, 2 weeks” value is reported as 3.2 mm. CCN(CC)C(=O)N1CCN(c2ccc(C(C)=O)cc2)CC1 [drawing 40] was tested, and the “D: average diameter of tumor, 2 weeks” value was 4.1 mm. For CCN(CC)C(=O)N1CCN(c2ccc(OC)cc2)CC1 [drawing 37], the “D: average diameter of tumor, 2 weeks” value was 3.0 mm.

Same assay, conditions: 20 mg/kg subcutaneous; 4 weeks; control 16.6
CCN(CC)C(=O)N1CCN(c2ccc(Cl)cc2)CC1 [drawing 36] was tested, and the “D: average diameter of tumor, 4 weeks” value was 2.1 mm. In the case of CCN(CC)C(=O)N1CCN(c2ccc(C(=O)O)cc2)CC1 [drawing 39], the “D: average diameter of tumor, 4 weeks” value is reported as 4.4 mm. In the case of CCN(CC)C(=O)N1CCN(c2ccccc2)CC1 [drawing 35], the “D: average diameter of tumor, 4 weeks” value is reported as 4.1 mm. CCOC(=O)c1ccc(N2CCN(C(=O)N(CC)CC)CC2)cc1 [drawing 38] was tested, and the “D: average diameter of tumor, 4 weeks” value was 3.4 mm. In the case of CCN(CC)C(=O)N1CCN(c2ccc(C(C)=O)cc2)CC1 [drawing 40], the “D: average diameter of tumor, 4 weeks” value is reported as 7.7 mm. For CCN(CC)C(=O)N1CCN(c2ccc(OC)cc2)CC1 [drawing 37], the “D: average diameter of tumor, 4 weeks” value was 1.0 mm.

Same assay, conditions: 20 mg/kg subcutaneous; 6 weeks; control 20.3
In the case of CCN(CC)C(=O)N1CCN(c2ccc(Cl)cc2)CC1 [drawing 36], the “D: average diameter of tumor, 6 weeks” value is reported as 3.8 mm. For CCN(CC)C(=O)N1CCN(c2ccc(C(=O)O)cc2)CC1 [drawing 39], the “D: average diameter of tumor, 6 weeks” value was 4.8 mm. With CCN(CC)C(=O)N1CCN(c2ccccc2)CC1 [drawing 35] the “D: average diameter of tumor, 6 weeks” value was 4.8 mm. CCOC(=O)c1ccc(N2CCN(C(=O)N(CC)CC)CC2)cc1 [drawing 38] was tested, and the “D: average diameter of tumor, 6 weeks” value was 3.8 mm. With CCN(CC)C(=O)N1CCN(c2ccc(C(C)=O)cc2)CC1 [drawing 40] the “D: average diameter of tumor, 6 weeks” value was 8.5 mm. With CCN(CC)C(=O)N1CCN(c2ccc(OC)cc2)CC1 [drawing 37] the “D: average diameter of tumor, 6 weeks” value was 2.2 mm.

Same assay, conditions: 20 mg/kg subcutaneous; 8 weeks; control 31.3
For CCN(CC)C(=O)N1CCN(c2ccc(Cl)cc2)CC1 [drawing 36], the “D: average diameter of tumor, 8 weeks” value was 0 mm. With CCN(CC)C(=O)N1CCN(c2ccc(C(=O)O)cc2)CC1 [drawing 39] the “D: average diameter of tumor, 8 weeks” value was 3.9 mm. For CCN(CC)C(=O)N1CCN(c2ccccc2)CC1 [drawing 35], the “D: average diameter of tumor, 8 weeks” value was 1.0 mm. CCOC(=O)c1ccc(N2CCN(C(=O)N(CC)CC)CC2)cc1 [drawing 38] was tested, and the “D: average diameter of tumor, 8 weeks” value was 2.5 mm. CCN(CC)C(=O)N1CCN(c2ccc(C(C)=O)cc2)CC1 [drawing 40] was tested, and the “D: average diameter of tumor, 8 weeks” value was 4.3 mm. For CCN(CC)C(=O)N1CCN(c2ccc(OC)cc2)CC1 [drawing 37], the “D: average diameter of tumor, 8 weeks” value was 5.3 mm.

Same assay, conditions: 20 mg/kg subcutaneous; 10 weeks; control 40.5
In the case of CCN(CC)C(=O)N1CCN(c2ccc(Cl)cc2)CC1 [drawing 36], the “D: average diameter of tumor, 10 weeks” value is reported as 0 mm. CCN(CC)C(=O)N1CCN(c2ccc(C(=O)O)cc2)CC1 [drawing 39] was tested, and the “D: average diameter of tumor, 10 weeks” value was 0 mm. CCN(CC)C(=O)N1CCN(c2ccccc2)CC1 [drawing 35] was tested, and the “D: average diameter of tumor, 10 weeks” value was 0 mm. With CCOC(=O)c1ccc(N2CCN(C(=O)N(CC)CC)CC2)cc1 [drawing 38] the “D: average diameter of tumor, 10 weeks” value was 0.8 mm. For CCN(CC)C(=O)N1CCN(c2ccc(C(C)=O)cc2)CC1 [drawing 40], the “D: average diameter of tumor, 10 weeks” value was 0 mm. In the case of CCN(CC)C(=O)N1CCN(c2ccc(OC)cc2)CC1 [drawing 37], the “D: average diameter of tumor, 10 weeks” value is reported as 4.0 mm.

Same assay, conditions: 20 mg/kg subcutaneous; of 6 mice; 0 weeks; control 6
With CCN(CC)C(=O)N1CCN(c2ccc(Cl)cc2)CC1 [drawing 36] the “N: number of living mice, 0 weeks” value was 6. CCN(CC)C(=O)N1CCN(c2ccc(C(=O)O)cc2)CC1 [drawing 39] was tested, and the “N: number of living mice, 0 weeks” value was 6. CCN(CC)C(=O)N1CCN(c2ccccc2)CC1 [drawing 35] was tested, and the “N: number of living mice, 0 weeks” value was 6. In the case of CCOC(=O)c1ccc(N2CCN(C(=O)N(CC)CC)CC2)cc1 [drawing 38], the “N: number of living mice, 0 weeks” value is reported as 6. With CCN(CC)C(=O)N1CCN(c2ccc(C(C)=O)cc2)CC1 [drawing 40] the “N: number of living mice, 0 weeks” value was 6. CCN(CC)C(=O)N1CCN(c2ccc(OC)cc2)CC1 [drawing 37] was tested, and the “N: number of living mice, 0 weeks” value was 6.

Same assay, conditions: 20 mg/kg subcutaneous; of 6 mice; 2 weeks; control 6
For CCN(CC)C(=O)N1CCN(c2ccc(Cl)cc2)CC1 [drawing 36], the “N: number of living mice, 2 weeks” value was 6. With CCN(CC)C(=O)N1CCN(c2ccc(C(=O)O)cc2)CC1 [drawing 39] the “N: number of living mice, 2 weeks” value was 6. In the case of CCN(CC)C(=O)N1CCN(c2ccccc2)CC1 [drawing 35], the “N: number of living mice, 2 weeks” value is reported as 6. In the case of CCOC(=O)c1ccc(N2CCN(C(=O)N(CC)CC)CC2)cc1 [drawing 38], the “N: number of living mice, 2 weeks” value is reported as 6. For CCN(CC)C(=O)N1CCN(c2ccc(C(C)=O)cc2)CC1 [drawing 40], the “N: number of living mice, 2 weeks” value was 6. CCN(CC)C(=O)N1CCN(c2ccc(OC)cc2)CC1 [drawing 37] was tested, and the “N: number of living mice, 2 weeks” value was 6.

Same assay, conditions: 20 mg/kg subcutaneous; of 6 mice; 4 weeks; control 6
CCN(CC)C(=O)N1CCN(c2ccc(Cl)cc2)CC1 [drawing 36] was tested, and the “N: number of living mice, 4 weeks” value was 6. In the case of CCN(CC)C(=O)N1CCN(c2ccc(C(=O)O)cc2)CC1 [drawing 39], the “N: number of living mice, 4 weeks” value is reported as 6. With CCN(CC)C(=O)N1CCN(c2ccccc2)CC1 [drawing 35] the “N: number of living mice, 4 weeks” value was 6. With CCOC(=O)c1ccc(N2CCN(C(=O)N(CC)CC)CC2)cc1 [drawing 38] the “N: number of living mice, 4 weeks” value was 6. CCN(CC)C(=O)N1CCN(c2ccc(C(C)=O)cc2)CC1 [drawing 40] was tested, and the “N: number of living mice, 4 weeks” value was 6. For CCN(CC)C(=O)N1CCN(c2ccc(OC)cc2)CC1 [drawing 37], the “N: number of living mice, 4 weeks” value was 6.

Same assay, conditions: 20 mg/kg subcutaneous; of 6 mice; 6 weeks; control 6
With CCN(CC)C(=O)N1CCN(c2ccc(Cl)cc2)CC1 [drawing 36] the “N: number of living mice, 6 weeks” value was 6. CCN(CC)C(=O)N1CCN(c2ccc(C(=O)O)cc2)CC1 [drawing 39] was tested, and the “N: number of living mice, 6 weeks” value was 6. With CCN(CC)C(=O)N1CCN(c2ccccc2)CC1 [drawing 35] the “N: number of living mice, 6 weeks” value was 6. For CCOC(=O)c1ccc(N2CCN(C(=O)N(CC)CC)CC2)cc1 [drawing 38], the “N: number of living mice, 6 weeks” value was 6. For CCN(CC)C(=O)N1CCN(c2ccc(C(C)=O)cc2)CC1 [drawing 40], the “N: number of living mice, 6 weeks” value was 6. For CCN(CC)C(=O)N1CCN(c2ccc(OC)cc2)CC1 [drawing 37], the “N: number of living mice, 6 weeks” value was 6.

Same assay, conditions: 20 mg/kg subcutaneous; of 6 mice; 8 weeks; control 4
With CCN(CC)C(=O)N1CCN(c2ccc(Cl)cc2)CC1 [drawing 36] the “N: number of living mice, 8 weeks” value was 6. With CCN(CC)C(=O)N1CCN(c2ccc(C(=O)O)cc2)CC1 [drawing 39] the “N: number of living mice, 8 weeks” value was 6. With CCN(CC)C(=O)N1CCN(c2ccccc2)CC1 [drawing 35] the “N: number of living mice, 8 weeks” value was 6. With CCOC(=O)c1ccc(N2CCN(C(=O)N(CC)CC)CC2)cc1 [drawing 38] the “N: number of living mice, 8 weeks” value was 6. CCN(CC)C(=O)N1CCN(c2ccc(C(C)=O)cc2)CC1 [drawing 40] was tested, and the “N: number of living mice, 8 weeks” value was 6. CCN(CC)C(=O)N1CCN(c2ccc(OC)cc2)CC1 [drawing 37] was tested, and the “N: number of living mice, 8 weeks” value was 6.

Same assay, conditions: 20 mg/kg subcutaneous; of 6 mice; 10 weeks; control 1
For CCN(CC)C(=O)N1CCN(c2ccc(Cl)cc2)CC1 [drawing 36], the “N: number of living mice, 10 weeks” value was 6. For CCN(CC)C(=O)N1CCN(c2ccc(C(=O)O)cc2)CC1 [drawing 39], the “N: number of living mice, 10 weeks” value was 6. CCN(CC)C(=O)N1CCN(c2ccccc2)CC1 [drawing 35] was tested, and the “N: number of living mice, 10 weeks” value was 6. With CCOC(=O)c1ccc(N2CCN(C(=O)N(CC)CC)CC2)cc1 [drawing 38] the “N: number of living mice, 10 weeks” value was 6. With CCN(CC)C(=O)N1CCN(c2ccc(C(C)=O)cc2)CC1 [drawing 40] the “N: number of living mice, 10 weeks” value was 6. With CCN(CC)C(=O)N1CCN(c2ccc(OC)cc2)CC1 [drawing 37] the “N: number of living mice, 10 weeks” value was 6.
